# Paper PMC2847018 (Biochemical pharmacology, 2010)
# Entries after “also recorded” stand apart in the source; their conditions may differ. Counter-ions that a name gives are not always drawn. Like-named read-outs stand apart in the source and are kept apart here.
# Legend:
# [1] = test system: placental carbonyl-reducing enzymes (human placental microsomes); assay type: biochemical; settings: bupropion 40 μM, pooled placental microsomes, 40 min 37°C; for effect on formation of threo- and erythrohydrobupropion: inhibitor 500 μM
# 11β-HSD1 = 11β-HSD1 ref 44; cited from earlier work
# [2] = test system: placental carbonyl-reducing enzymes (human placental microsomes); assay: Type of inhibition and Ki of 18β-GA on bupropion reduction; assay type: biochemical; settings: Lineweaver-Burk plot: apparent Km increased, Vmax not affected
# [3] = Kinetics of bupropion reduction by human placental microsomes; assay type: in vitro ADME; settings: Mean±S.D. of HPM 1-6
smiles,measurement,setting,value
Cc1cn[nH]c1 [4-methylpyrazole],effect on formation of threo- and erythrohydrobupropion,[1],did not inhibit
"CC1(C)[C@@H](O)CC[C@]2(C)[C@H]3C(=O)C=C4[C@@H]5C[C@@](C)(C(=O)O)CC[C@]5(C)CC[C@@]4(C)[C@]3(C)CC[C@@H]12 [18β-GA, 18β-glycyrrhetinic acid]",IC50,11β-HSD1,[…]
same,type of inhibition of bupropion reduction,[2],competitive
same,inhibition of formation of threo- and erythrohydrobupropion,[1]; inhibitor 0.1 μM,80%
CCC1(CC)C(=O)NC(=O)NC1=O [barbital],effect on formation of threo- and erythrohydrobupropion,[1],did not inhibit
"CC(NC(C)(C)C)C(=O)c1cccc(Cl)c1 (stereo not shown) [bupropion, Bupropion hydrochloride]","Vmax, erythrohydrobupropion formation",[3],3.1±1.2 picomoles per minute per milligram of protein
same,"Vmax, threohydrobupropion formation",[3],18.6±6.1 picomoles per minute per milligram of protein
O=c1oc2ccccc2c(O)c1Cc1c(O)c2ccccc2oc1=O [dicumarol],effect on formation of threo- and erythrohydrobupropion,[1],did not inhibit; also recorded: did not affect
O=C(O)c1ccccc1Nc1cccc(C(F)(F)F)c1 [flufenamic acid],inhibition of formation of threo- and erythrohydrobupropion,[1]; inhibitor 4 μM,50%
CC1=CC(=O)c2ccccc2C1=O [menadione],inhibition of formation of threo- and erythrohydrobupropion,[1]; inhibitor 100 μM,70%
